US20260007624A1, “COMPOSITION FOR AMELIORATING OR TREATING CANCER CACHEXIA […] LACTATE AS ACTIVE INGREDIENT” (METIMEDI PHARMACEUTICALS CO., LTD., priority 2022, published 2026)
“And” between values parts separate entries of the source, which are not always exact repeats. Identical values can stand only once.

What was measured:
Hif-1α = assay: Western blot of Hif-1α expression in cancer cells; assay type: cell-based; conditions: for Hif-1α expression: hypoxia 1% O2, FIG. 4
Procedure: Then, Hif-1α antibody was diluted in TBST and attached to the protein on the membrane, washed with TBST, and treated with secondary antibody, and the band results were confirmed using X-ray film or Gel doc equipment.

[1] = Tissue pharmacokinetics (lactate concentration in muscle and tumor tissue); assay type: in vivo, Balb/c nude mice; conditions: HCT-116 tumor mice, 20 mg/kg S.C.
Procedure: Balb/c nude mice were obtained and 1×10^6 HCT-116 was implanted subcutaneously to grow tumors. […] Each obtained tissue was analyzed for changes in lactate concentration over time using a lactate analysis kit.

[2] = test system: colon cancer cell line HCT-116; assay: Cytotoxicity assay, colon cancer cells; assay type: cell-based; conditions: HCT-116, 48 hours, FIG. 2 lower panel
Procedure: 5×10^3 of normal colon fibroblast cell line CCD-18Co or colon cancer cell line HCT-116 were cultured in a 96-well plate at 37° C., 5% CO2. Incubator and observed under a microscope after 48 hours.

[3] = test system: metastatic colorectal cancer refractory to standard therapy; assay: Phase II clinical trial of calcium lactate (cachexia, tumor response, survival, safety); assay type: in vivo, patients; parameters: key to Overall tumor response: SD means that tumor growth has stopped; PD means that the tumor has increased by 20% or more
Procedure: The clinical study was a phase II clinical trial targeting patients with metastatic colorectal cancer refractory to standard therapy.
Twenty-two patients were enrolled, and 16 completed the trial (see Table 1).
The administration method was subcutaneous injection, and the administration dose was 100 mg/day. One cycle consisted of 4 weeks of treatment with 5 days of I.P. administration subcutaneously once daily followed by 2 days of rest.
Tumor assessment was performed every 2 cycles compared to baseline.
The clinical outcomes were the primary outcome of disease control rate, and the secondary outcomes were overall survival, progression-free survival, and safety. Body weight was measured 1 month after the start of administration and expressed as the increase or decrease in body weight before and after administration. Tumor response was performed with a CT scan 2 months after the start of administration and expressed as the increase or decrease in tumor size before and after administration. SD means that tumor growth has stopped, and PD means that the tumor has increased by 20% or more.
BMI and Weight TO were measured at the screening visit, and Weight T1mo and SLD changes in the target lesion were measured 1 and 2 months after IP administration, respectively. SLD is an abbreviation for sum of longest diameters. SD and PD are abbreviations for stable disease and progressive disease, respectively.

[4] = 8 patients with weight loss including cachexia
[5] = of 16 patients who completed the trial

Structure (SMILES): CC(O)C(=O)[O-].CC(O)C(=O)[O-].[Ca+2] (stereo not drawn) [calcium lactate]
- Hif-1α expression (Hif-1α; AsPC-1 (pancreatic cancer)): reduced
- Hif-1α expression (Hif-1α; H1975 (lung cancer)): reduced
- Hif-1α expression (Hif-1α; HCT-116 (colon cancer)): reduced
- Hif-1α expression (Hif-1α; MDA-MB-231 (breast cancer)): reduced
- expression of Hif-1α protein (Hif-1α; colon cancer cells, hypoxia, FIG. 3 upper panel): reduced
- concentration of lactate in muscle tissue [1]: no change
- concentration of lactate in tumor tissues ([1]; 2 hours after administration): increases
- effect on survival in colorectal cancer cells [2]: cancer cell death can be observed
- efficacy of preventing patients from cachexia ([3]; 2 out of 16 patients progressed to cancerous cachexia): 87.5%
- median overall survival ([3]; 8 patients with maintained or increased weight): 8 months
- median increase in tumor size [3, 4]: 17%
- median overall survival [3, 4]: 4.15 months
- median increase in tumor size ([3]; 8 patients with weight maintenance or increase): 9.5%
- disease control rate ([3]; 16 patients): 68.75%
- drug efficacy for tumor growth arrest ([3]; 16 patients, metastatic stage): 68.8%
- Overall survival ([3]; individual patient): 2.4 months and 4.4 months and 6 months and 14.9 months and 7.6 months and 2.7 months and 3.6 months and 7.9 months and 23 months and 8.1 months and 5.1 months and 6.3 months and 16.7 months and 25.8 months
- SLD change at target lesions ([3]; individual patient, CT scan 2 months after start, RECIST 1.1): 12.5% and 10.8% and 15.7% and 12.6% and 9.1% and 34.7% and 17.7% and 29.0% and −2.9% and 129.2% and 3.3% and 15.6% and 10.0% and 18.4% and 2.2% and 6.2%
- Overall tumor response ([3]; individual patient, RECIST 1.1): SD (11×) and PD (PD means that the tumor has increased by 20% or more) (5×)
- Weight change ([3]; individual patient, screening to 1 month of treatment, 100 mg/day subcutaneous): 1.4% (3×) and −4.6% and 1.1% and 6.0% and −1.3% and −3.6% and 0.0% and −6.7% and −3.4% and 3.4% and −4.9% and 10.6% and −0.8%
- Cachexia, % of patients [3, 5]: 12.5%
- Cachexia, number of patients [3, 5]: 2
- Weight gain (maintained or increased weight), number of patients [3, 5]: 8
- Weight gain, % of patients [3, 5]: 50.0%
- Weight loss (not corresponding to cachexia), number of patients [3, 5]: 6
- Weight loss, % of patients [3, 5]: 37.5%
- number of patients with stable disease ([3]; out of 16 patients): 11
- DLT (dose limiting toxicity) ([3]; phase 2 clinical trials): Non-DLT
